# Results filed as inconclusive are left out. Active and inactive are the calls of the source.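 The calls were made as follows: active = signal-lowering compounds whose fitted half-maximal concentration is at most ten times their highest tested dose; inconclusive = flat fit between -30 and -70%, or poor fit; inactive = flat within 30%, signal rising, or potency beyond limit.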
# Target: POS-1 (Caenorhabditis elegans) binding to mex-3 RNA
# Assay: inhibitors of POS-1/mex-3 RNA binding, dose response, counter-screen for MEX-5 RNA-binding inhibitor project, biochemical, fluorescence polarization, cherry-picked samples, set 2 (AID 493130);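 also: POS-1 as maltose binding protein fusion made in E. coli with FITC RNA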;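 as to activity change, negative = inhibition: 0% = DMSO neutral wells and -100% = excess unlabeled mex3 competitor RNA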
# Conditions: POS-1/mex-3 RNA fluorescence polarization, 1 h
row,Structure (SMILES),AC50 [µM]
1,COc1ccc(C2C=C(c3ccc(Br)cc3)Nc3nc(N4C(=O)CCC4=O)nn32)cc1 (configuration not stated),8.26
2,O=C1N=c2ccccc2=C1c1sc(=S)n(NC(=O)c2ccccc2)c1O,8.56
3,CCCCN1C(=O)C2Cc3c([nH]c4ccccc34)CN2C1=S (configuration not stated),8.04
4,O=C(c1ccc(Cl)cc1)C1C2C(=O)N(c3ccccc3)C(=O)C2C2CCCN21 (configuration not stated),5.95
5,CCN1/C(=C2\SC(=S)N(Cc3ccccc3)C2=O)Sc2ccccc21,1.6
6,COc1ccc(NC(=S)NNc2ccc(S(=O)(=O)Nc3ccccc3C(=O)O)cc2[N+](=O)[O-])cc1,4.53
7,O=C(N/N=C/C1C(=O)NC(=S)N(c2ccccc2)C1=O)c1cc(Br)c(O)c(Br)c1 (configuration not stated),7.64
8,O=C(NNC(=O)c1ccccc1O)c1ccc(S(=O)(=O)Nc2ccccc2)cc1,4.17

# Same assay, conditions: POS-1/mex-3 RNA fluorescence polarization, 1 h; at 10 µM (top of the series)
row,Structure (SMILES),"activity change, negative = inhibition"
1,C[n+]1c2ccccc2nc2ccc(NCCO)cc21,inactive
2,Cc1ccc(-c2nc(C=Nc3ccccc3)c(O)o2)cc1,inactive
3,O=[N+]([O-])c1ccc(O)c(C=Nc2ccc3c(c2)OCCO3)c1,inactive
4,Cc1nc2ccc3nc(NC(=O)c4ccc5c(c4)OCCO5)sc3c2s1,inactive
5,CC(=O)NN1C(=O)/C(=C/c2ccc(Br)o2)SC1=S,inactive
6,Cc1c(NC(=O)c2ccc(=O)oc2)c(=O)n(-c2ccccc2)n1C,inactive
7,O=C(NC(=S)NNS(=O)(=O)c1ccccc1)c1ccc([N+](=O)[O-])cc1,inactive
8,O=C(NNc1ncnc2c1cnn2-c1ccc(F)cc1)c1ccco1,inactive
9,CC1CN2C(c3ccc(Cl)cc3)=CSC2=N1 (configuration not stated),inactive
10,COC(=O)c1ccc(CC(=O)c2ccc(O)cc2O)o1,inactive
11,CCOc1ccc(/C=C2/C(=O)N(c3ccc(OC)cc3)C(=S)N2CC(=O)OC)cc1OCC,inactive
12,CS(=O)(=O)/C(C#N)=C/c1c(-c2ccccc2)nc2n1CCS2,inactive
13,COc1cc(/C=C2\CCCc3c2nc2ccccc2c3C(=O)O)cc(OC)c1O,inactive
14,Cc1ccc(S(=O)(=O)c2cc3c(=O)n4ccccc4nc3n(C)c2=N)cc1,inactive
15,O=C1N=C(N2C=CC(=C3C=CNC=C3)C=C2)/C(=C/N=NC(=O)c2ccccc2)S1,inactive
16,COc1ccc2ccccc2c1CNCc1ccccn1,inactive
17,O=C1N=c2ccccc2=C1c1sc(NS(=O)(=O)c2ccccc2)nc1O,inactive
18,COc1ccc(-c2cn[nH]c2-c2ccc(O)cc2O)cc1OC,inactive
19,Cc1nn(C(C)C(=O)NNC(=S)Nc2ccc(Cl)cc2)c(C)c1[N+](=O)[O-] (configuration not stated),inactive
20,CCc1ccc(/C=C2\Oc3cc(OS(C)(=O)=O)ccc3C2=O)cc1,inactive
21,CCN(Cc1ccccc1)c1ccc(/C=C(\C#N)c2ccccn2)cc1,inactive

row,Structure (SMILES),"activity change, negative = inhibition"
1,COc1cc(OC)c2ccc(=O)oc2c1C(CC(=O)N1CCCC1)c1ccc(N(C)C)cc1 (configuration not stated),inactive
2,O=C(O)CCSc1nc2ccccc2n1Cc1ccccc1,inactive
3,Cc1cc(C)cc(NC(=O)N(C)Cc2ccccc2)c1,inactive
4,N#Cc1cc2c(=O)n3ccccc3nc2n(CCCN2CCOCC2)c1=O,inactive
5,Nc1c(C(=O)Nc2ccccc2)sc2nc3c(c(-c4ccco4)c12)CCC3,inactive
6,COc1cc2c(cc1O)CC1c3c(cc(O)c(OC)c3-2)CCN1C (configuration not stated),inactive
7,Cc1cc([N+](=O)[O-])nn1CC(=O)NNC(=S)Nc1ccc(F)cc1,inactive
8,CCOC(=O)[C@]1(C#N)[C@@H]2C=CC(C(N)=O)=CN2[C@@H](C(N)=O)[C@@H]1c1ccc(F)cc1,inactive
9,CC1=Nc2ccc(C)cc2/C1=C/c1c(N)n2c(S(=O)(=O)C(C)C)nsc2nc1=O,inactive
10,CCOC(=O)c1cnc(SCC(=O)NNC(=O)c2ccco2)nc1N,inactive
11,O=c1[nH]c2ccccc2n1Cc1ccc(Cl)cc1,inactive
12,COC(=O)c1cc(O)c(O)c(O)c1,inactive
13,Cc1cc(/C=C2\C(=O)NC(=O)N(Cc3ccccc3)C2=O)c(C)n1-c1ccc(Cl)c(C(=O)O)c1,inactive
14,CCOC(=O)c1cc(-c2ccccc2)sc1NC(=S)Nc1cccc(C)n1,inactive
15,CCOC(=O)CCCc1sc(N)nc1-c1[nH]c(=O)[nH]c1C,inactive
16,CCN(CC)c1ccc(C(=O)N/N=C(\C)c2cccnc2)cc1,inactive
17,CC(=O)NN1C(=O)/C(=C2/Sc3ccccc3N2C)SC1=S,inactive
18,CCCOc1ccc(C2=CSC3=NCCN23)cc1[N+](=O)[O-],inactive
19,CCOC(=O)/C=c1\s/c(=C\c2ccc(-c3ccccc3)cc2)c(=O)n1CC(=O)NCc1ccc2c(c1)OCO2,inactive
20,COc1ccc(/C=C/C(=O)c2cc(Cl)cc(Cl)c2O)c(OC)c1,inactive
21,Oc1c(Cl)cc(Cl)c2c1NCCC2,inactive

row,Structure (SMILES),"activity change, negative = inhibition"
1,CC(=O)Nc1ccc(/C=C/c2nc(-c3ccccc3O)n[nH]2)cc1,inactive
2,CCOC(=O)C1(C)/C(=N/Nc2cccc(Cl)c2)C(=O)C(=O)N1c1ccccc1 (configuration not stated),inactive
3,CCOC(=O)C1CSc2[nH]c(=O)sc2C1c1ccccc1 (configuration not stated),inactive
4,COC(=O)CCC(=O)OC1(C)C(=O)C2=CN(Cc3ccccc3)C(c3ccc(OC)cc3)=CC2=C(Br)C1=O (configuration not stated),inactive
5,CCOC(=O)C1CCN(c2nc(N)c3c(N)nc(SCC(=O)O)cc3c2C#N)CC1,inactive
6,O=c1[nH]cnc2c1C(c1ccccc1)c1c(nc[nH]c1=O)O2,inactive
7,COc1cc2c(cc1OC)-c1c(OC)c(OC)cc3c1C(C2)N(C)CC3 (configuration not stated),inactive
8,Cc1cccc(C(=O)NNC(=O)c2csc(N3CCOCC3)n2)c1C,inactive
9,COc1ccc(/C=C/C(=O)N/C(=C\c2ccco2)C(=O)NCCc2nc3ccccc3[nH]2)cc1,inactive
10,COc1ccc(OC)c(/C=C/C(=O)Nc2ccc(OC)nc2)c1,inactive
11,COc1ccc(NC(=S)NNC(=O)C(C)n2nc(C)c([N+](=O)[O-])c2C)cc1 (configuration not stated),inactive
12,Cc1cccc(C)c1NC(=O)/C(C#N)=C/c1cccs1,inactive
13,Cc1cc(=O)n2[nH]c(N)c(N=Nc3ccccc3F)c2n1,inactive
14,O=C(N/N=C/c1cccnc1)c1ccccc1,inactive
15,O=C(CCN1C(=O)/C(=C\c2ccco2)SC1=S)Nc1ccc(C(=O)O)c(O)c1,inactive
16,O=C1c2cccc3cccc(c23)C(=O)N1Cc1ccccc1,inactive
17,Cc1cc(C(=O)N/N=C/c2ccc(-c3ccc([N+](=O)[O-])cc3Cl)o2)n[nH]1,inactive
18,O=C(Nc1cccnc1)c1cccs1,inactive
19,COc1ccc(NCc2n[nH]c(=O)c3ccccc23)cc1,inactive
20,Oc1ccc(Br)cc1C=Nc1cccn2cc(-c3ccccc3)nc12,inactive
21,Cc1cc2n(n1)C(c1c[nH]c3ccccc13)Nc1ccccc1-2 (configuration not stated),inactive

row,Structure (SMILES),"activity change, negative = inhibition"
1,CC1CN(Cc2c(O)ccc3c2oc(=O)c2ccccc23)CC(C)O1 (configuration not stated),inactive
2,O=C1OC(C(=O)O)Cc2ccccc21 (configuration not stated),inactive
3,N=c1c(C(=O)NC2CCCC2)cc2c(=O)n3ccccc3nc2n1C1CCCC1,inactive
4,CC(=O)CSc1ncnc2nc[nH]c12,inactive
5,O=C(N/N=C/c1oc(O)c2ccccc12)c1ccccc1O,inactive
6,O=C(NNC(=O)c1ccco1)c1csc(N2CCOCC2)n1,inactive
7,Cc1ccc2c(c1)c(C1=NC(=S)NC1=O)c(O)n2C,inactive
8,COc1ccccc1/C=C1\SC(=S)N(CCC(=O)Nc2cc(C)on2)C1=O,inactive
9,Cc1nc2nc(-c3ccc(Cl)cc3)cn2nc1C,inactive
10,COc1ccc(C(=O)NNC(=O)C(=O)/C=C(\O)c2ccc(C)cc2)cc1,inactive
11,O=C1C(Cl)=C(NC2CCCCC2)C(=O)N1c1ccc(Cl)cc1,inactive
12,C#CCOCCOCCOCCNc1nc(N2CCN(C(=O)[C@H]([C@@H](C)CC)n3cc([C@@H](N)CO)nn3)CC2)nc(N2CCN(C(=O)[C@H]([C@@H](C)CC)n3cc([C@@H](N)CO)nn3)CC2)n1,inactive
13,CCOC(=O)CC1=C(C(=O)OCC)C(c2ccc(OC)cc2OC)C(C#N)=C(N)O1 (configuration not stated),inactive
14,Oc1cc2c(c(Cl)c1O)CCNCC2c1ccccc1 (configuration not stated),inactive
15,CC1=CC2=C(OC1N(C)C)c1cccc3cccc(c13)C2=O (configuration not stated),inactive
16,COc1ccc(/C=C2\CCCc3c2nc2ccc(C)cc2c3C(=O)O)cc1O,inactive
17,COc1ccc(NC(=O)c2sc3nc(Cc4ccccc4)cc(C(F)(F)F)c3c2N)cc1OC,inactive
18,CCN(CC(=O)Nc1ccc(NC(C)=O)cc1)Cc1c(O)ccc2cc(Br)ccc12,inactive
19,Cc1cccc(CS(=O)(=O)c2nnc([C@H](Cc3ccccc3)NC(=O)OC(C)(C)C)o2)c1,inactive
20,CSCCCN1CCC(n2nccc2NC(=O)CCCc2ccccc2)CC1,inactive
21,O=C(O)c1cc(-c2ccco2)nc2cc3ccccc3cc12,inactive

# Source: PubChem BioAssay AID493130 (Broad Institute, 2011)
